Laboratory results published in patent publication US6589773B1, “Methods and compositions for a modified yeast strain with increased permeability and uses thereof” (priority 2000, dated 2003).
≈ marks a conversion by molar mass, not a printed value.

Legend:
[1] = system: modified strains SKY54 and SKY197; experiment: Yeast strain sensitivity to selected compounds (top-agar death zones / MIC), modified strains; assay type: cell-based, S. cerevisiae; details: for change of sensitivity on induction of HXT9 and HXT11 expression: Gal/Raff containing media; for sensitivity relative to parental strains SKY48 and SKY191, based on the size of the death zones: YPD media, same concentration
Description: As used herein, “hyperpermeable” yeast cells or a “hyperpermeable” yeast strain, are yeast cells and strains which have an increased sensitivity to one or more test compounds, relative to the sensitivity of the yeast cells and strains without the above-described insertion-disruption of genes that alter cellular permeability. Sensitivity to such compounds and small molecules is determined by measuring the MIC (minimal inhibitory concentration) of such compounds to visible growth of yeast cells, disregarding a haze of barely visible growth of such yeast cells.
(§1) Decreasing concentrations of cycloheximide, 4-nitroquinolin-oxide, sulfmethuron methyl, and Zeocin were plated on parental yeast strains SKY48 and SKY191 and the modified yeast strains SKY54 and SKY197. From top to bottom of each plate, and from left to right of each row: 5 μg, 2.5 μg, 1 μg, 0.5 μg, 0.2 μg, and 50 ng of CYH; 2.5 μg, 1.25 μg, 0.5 μg, 0.25 μg, 0.1 μg, and 25 ng of NQO; 100 μg, 50 μg, 20 μg, 10 μg, 4 μg, and 1 μg of SMM; and 100 μg, 50 μg, 20 μg, 10 μg, 4 μg, and 1 μg of Zeo.
Yeast strain sensitivity to selected compounds SKY54 and SKY197 were tested for sensitivity to various concentrations of compounds, including cycloheximide (CYH), 4-nitroquinolin-oxide (NQO), sulfmethuron methyl (SMM) and Zeocin (Zeo), relative to the sensitivity of the parental strains, SKY48 and SKY191 to these compounds. Yeast cells were propagated on YPD or YPG/R plates in top-agar layer containing 1% of low melt SeaPlaque agarose and YPD or YPG/R growth media with glucose or galactose as the carbon source. CYH (5 mg/ml), NQO (2.5 mg/ml), SMM (100 mg/ml) and Zeo (100 mg/ml) stock solutions were diluted 2, 5, 10, 25, and 100-fold, and applied on top-agar growing yeast by means of prone device. Sensitivity to various concentrations of compounds was scored by visualization of growth on this media, and the size of “death zones” of sensitive colonies. Thus, the plates shown in FIG. 15 show the sensitivity of the parental and modified yeast strains to, from top to bottom of each plate, and from left to right of each row, 5 μg, 2.5 μg, 1 μg, 0.5 μg, 0.2 μg, and 50 ng of CYH; 2.5 μg, 1.25 μg, 0.5 μg, 0.25 μg, 0.1 μg, and 25 ng of NQO; 100 μg, 50 μg, 20 μg, 10 μg, 4 μg, and 1 μg of SMM; and 100 μg, 50 μg, 20 μg, 10 μg, 4 μg, and 1 μg of Zeo. […] When SKY54 and SKY197 were incubated on Gal/Raff containing media, thereby inducing expression of HXT9 and HXT11 genes, the sensitivity to CYH and 4-NQO increased. The estimated increase of death zone diameters for 4-NQO for SKY54 and SKY 197 on Gal/Raff media in comparison with the parental strains grown on the same media was ˜32-40%. After 48 hours of incubation on Gal/Raff media, sensitivity to CYH was estimated to be 0.01 μg/ml MIC (minimal inhibitory concentration). The MIC is defined as the lowest concentration (micrograms per milliliter of broth) that inhibited visible growth, disregarding a haze of barely visible growth. Sensitivity to CYH of a yeast strain harboring PDR1 and PDR3 deletions, and the HXT11 gene overexpressed from a multicopy plasmid, was previously reported as having an MIC of 0.03 μg/ml CYH (Nourani et al., 1997, Mol. Cell. Biol. 17:5453-5460). […] A comparative analysis of parental strain SKY48 and obtained SKY54 to 73,400 compounds from the SMT chemical library is shown in Table 2. SKY48 is sensitive to 1,959 compounds while SKY54 is sensitive to 3,011 compounds. Thus, SKY54 was sensitive to 154% as many compounds as the parental strain, SKY48.

[2] = system: parental strains SKY48 and SKY191; experiment: Yeast strain sensitivity to selected compounds (top-agar death zones), parental strains; assay type: cell-based, S. cerevisiae; details: all concentrations tested (100 μg to 1 μg)
Description: as §1
SKY48 and SKY191 parental strains The parent strains SKY48 and SKY 191 (MATαtrp1 URA3 his3 lexAop-LEU2 cIop-LYS2), with 6 or 2 lexA operators upstream of LEU2, respectively, have been described (Serebriiskii et al., 1999, J. Biol. Chem. 274:17080-17087, which is incorporated herein by reference in its entirety).
Yeast strain sensitivity to selected compounds SKY54 and SKY197 were tested for sensitivity to various concentrations of compounds, including cycloheximide (CYH), 4-nitroquinolin-oxide (NQO), sulfmethuron methyl (SMM) and Zeocin (Zeo), relative to the sensitivity of the parental strains, SKY48 and SKY191 to these compounds. […] Sensitivity to various concentrations of compounds was scored by visualization of growth on this media, and the size of “death zones” of sensitive colonies. […]

[3] = system: yeast strain harboring PDR1 and PDR3 deletions, and the HXT11 gene overexpressed from a multicopy plasmid; details: previously reported, Nourani et al., 1997; cited from earlier work

| Structure (SMILES) | sensitivity (growth, size of death zones) ([1]; SKY54 and SKY197, all concentrations tested (100 μg to 1 μg)) | sensitivity (growth, size of death zones) [2] | change of sensitivity on induction of HXT9 and HXT11 expression [1] | estimated increase of death zone diameters in comparison with the parental strains ([1]; Gal/Raff media, parental strains grown on the same media) | sensitivity relative to parental strains SKY48 and SKY191, based on the size of the death zones [1] | MIC ([1]; Saccharomyces cerevisiae, SKY54ANDSKY197, 48 h, read-out: MIC (minimal inhibitory concentration)) | MIC [3] |
| --- | --- | --- | --- | --- | --- | --- | --- |
| COC(=O)c1ccccc1S(=O)(=O)NC(=O)Nc1nc(C)cc(C)n1 [SMM, sulfmethuron methyl] | no sensitivity | no sensitivity | – | – | – | – | – |
| O=[N+]([O-])c1cc[n+]([O-])c2ccccc12 [4-NQO, 4-nitroquinolin-oxide] | – | – | increased | 32-40% | significantly more sensitive | – | – |
| C[C@@H]1C[C@@H]([C@H](O)CC2CC(=O)NC(=O)C2)C(=O)[C@@H](C)C1 [CYH, cycloheximide] | – | – | increased | – | significantly more sensitive | 0.01 µg/mL (≈ 0.0355 µM) | 0.03 µg/mL (≈ 0.107 µM) |
